Assay results reported in patent publication US20260258025A1, “INHIBITORS OF TDP-43 AND TAU AGGREGATION” (Aquinnah Pharmaceuticals, inc., priority 2023, published 2026).

These molecules were tested on TDP-43 aggregation (assay: TDP-43 aggregation assay in SY5Y TDP-43WT cells (high content imaging)). Conditions: Homo sapiens, tetracycline induction 24 hrs, 1 hour compound pre-treatment, sodium arsenite 23 hrs, 8-point dose curve, percentage of cells with TDP-43 aggregates, read-out: IC50, Inhibition of TDP-43 Aggregation.
Type: cell-based
Experimental: Exemplary compounds disclosed herein were evaluated for efficacy in inhibiting TDP-43 inclusions cellular imaging-based assays.
The cellular model was in human neuroblastoma SH SYSY cells (ATCC, cat #: CRL-2266). The parent cell line was first engineered to stably express a tetracycline repressor protein (designated as TREx-SY5Y cells, customer cell line development by ThermoFisher). Wild-type human TDP-43 with a C-terminus eGFP tag was synthesized and cloned into pcDNA5/TO expression vector (ThermoFisher). The plasmid was transfected into TREx-SY5Y cells using Lipofectamine 2000 and hygromycin resistant colonies were selected. Expression of TDP-43WT::eGFP was examined under fluorescent microscopy and Western blot upon tetracycline induction. The clone that was used for TDP-43 aggregation assay is referred to as SY5Y TDP-43WT cells hereafter.
Compound inhibition of TDP-43 aggregation was tested in an 8-point dose curve in 96-well format. Briefly, TDP-43WT::eGFP expression was induced with […] for 24 hrs (SY5Y TDP-43WT cells). The cells were then pre-treated for 1 hour with exemplary compounds before adding sodium arsenite to a final concentration of […] and incubated for another 23 hrs. At the end of the treatment the cell monolayers were washed in PBS and fixed in 4% paraformaldehyde (PFA), diluted from 16% stock (Electron Microscopy Sciences cat: #15710-S). The inhibitory effect on TDP-43 aggregation was measured using CellInsight CX7 high content imager (ThermoFisher). The percentage of cells with TDP-43 aggregates was calculated based on the total number of cells identified by DAPI staining. An 8-point dose response curve was generated, and the IC50 for each compound tested was determined (Table 3).
In Table 3 below, A indicates an IC50 (nM)<500 nM, B indicates an IC50 (nM) 500 nM to <1000 nM, C indicates an IC50 (nM) 1000 nM to <2000 nM, D indicates an IC50 (nM) 2000 nM to <6000 nM, and E indicates an IC50 (nM) 6000 nM to ≤10000 nM.

Row | Compound | IC50
1 | N[C@H]1CCN(C(=O)c2sc(-c3ccc(C4CCN(C5CCC5)CC4)c(F)c3)cc2Cl)C1 [Compound 271, (S)-(3-aminopyrrolidin-1-yl)(3-chloro-5-(4-(1-cyclobutylpiperidin-4-yl)-3-fluorophenyl)thiophen-2-yl)methanone] | < 500 nM
2 | COc1cc(-c2ccc(C3CCN(C4CCOCC4)CC3)c(Cl)c2)sc1C(=O)N1CC[C@H](N)C1 [Compound 272, (S)-(3-aminopyrrolidin-1-yl)(5-(3-chloro-4-(1-(tetrahydro-2H-pyran-4-yl)piperidin-4-yl)phenyl)-3-methoxythiophen-2-yl)methanone] | 1000 to 2000 nM
3 | N[C@H]1CCN(C(=O)c2sc(-c3ccc(C4CCN(C5CCOCC5)CC4)c(Cl)c3)cc2Cl)C1 [Compound 273, (S)-(3-aminopyrrolidin-1-yl)(3-chloro-5-(3-chloro-4-(1-(tetrahydro-2H-pyran-4-yl)piperidin-4-yl)phenyl)thiophen-2-yl)methanone] | < 500 nM
4 | Cc1cc(-c2ccc(C3CCN(C4CCOC4)CC3)c(F)c2)sc1C(=O)N1CC[C@H](N)C1 (stereo partly drawn) [Compound 274, ((S)-3-aminopyrrolidin-1-yl)(5-(3-fluoro-4-(1-(tetrahydrofuran-3-yl)piperidin-4-yl)phenyl)-3-methylthiophen-2-yl)methanone] | < 500 nM
5 | COCCCN1CCC(c2ccc(-c3cc(C)c(C(=O)N4CC[C@H](N)C4)s3)cc2F)CC1 [Compound 275, (S)-(3-aminopyrrolidin-1-yl)(5-(3-fluoro-4-(1-(3-methoxypropyl)piperidin-4-yl)phenyl)-3-methylthiophen-2-yl)methanone] | < 500 nM
6 | COCCN1CCC(c2ccc(-c3cc(C)c(C(=O)N4CC[C@H](N)C4)s3)cc2F)CC1 [Compound 276, (S)-(3-aminopyrrolidin-1-yl)(5-(3-fluoro-4-(1-(2-methoxyethyl)piperidin-4-yl)phenyl)-3-methylthiophen-2-yl)methanone] | < 500 nM
7 | Cc1cc(-c2ccc(C3CCN(C4CCCCC4)CC3)c(F)c2)sc1C(=O)N1CC[C@H](N)C1 [Compound 277, (S)-(3-aminopyrrolidin-1-yl)(5-(4-(1-cyclohexylpiperidin-4-yl)-3-fluorophenyl)-3-methylthiophen-2-yl)methanone] | < 500 nM
8 | Cc1cc(-c2ccc(C3CCN(C4CCCC4)CC3)c(F)c2)sc1C(=O)N1CC[C@H](N)C1 [Compound 278, (S)-(3-aminopyrrolidin-1-yl)(5-(4-(1-cyclopentylpiperidin-4-yl)-3-fluorophenyl)-3-methylthiophen-2-yl)methanone] | < 500 nM
9 | Cc1cc(-c2ccc(C3CCN(C4CCC4)CC3)c(F)c2)sc1C(=O)N1CC[C@H](N)C1 [Compound 279, (S)-(3-aminopyrrolidin-1-yl)(5-(4-(1-cyclobutylpiperidin-4-yl)-3-fluorophenyl)-3-methylthiophen-2-yl)methanone] | < 500 nM
10 | CN1CCC(c2ccc(-c3cc(Cl)c(C(=O)N4CC[C@H](N)C4)s3)cc2F)CC1 [Compound 280, (S)-(3-aminopyrrolidin-1-yl)(3-chloro-5-(3-fluoro-4-(1-methylpiperidin-4-yl)phenyl)thiophen-2-yl)methanone] | < 500 nM
11 | CCN1CCC(c2ccc(-c3cc(C)c(C(=O)N4CC[C@H](N)C4)s3)cc2F)CC1 [Compound 281, (S)-(3-aminopyrrolidin-1-yl)(5-(4-(1-ethylpiperidin-4-yl)-3-fluorophenyl)-3-methylthiophen-2-yl)methanone] | < 500 nM

Now from value to molecule:

Row | IC50 | Compound
12 | < 500 nM | Cc1cc(-c2ccc(C3CCN(C(C)C)CC3)c(F)c2)sc1C(=O)N1CC[C@H](N)C1 [Compound 282, (S)-(3-aminopyrrolidin-1-yl)(5-(3-fluoro-4-(1-isopropylpiperidin-4-yl)phenyl)-3-methylthiophen-2-yl)methanone]
13 | < 500 nM | COCCN1CCC(c2ccc(-c3cc(Cl)c(C(=O)N4CC[C@H](N)C4)s3)cc2F)CC1 [Compound 283, (S)-(3-aminopyrrolidin-1-yl)(3-chloro-5-(3-fluoro-4-(1-(2-methoxyethyl)piperidin-4-yl)phenyl)thiophen-2-yl)methanone]
14 | < 500 nM | CC(C)N1CCC(c2ccc(-c3cc(Cl)c(C(=O)N4CC[C@H](N)C4)s3)cc2F)CC1 [Compound 284, (S)-(3-aminopyrrolidin-1-yl)(3-chloro-5-(3-fluoro-4-(1-isopropylpiperidin-4-yl)phenyl)thiophen-2-yl)methanone]
15 | 1000 to 2000 nM | CCCc1cc(-c2ccc(C3CCN(C4CCOCC4)CC3)cc2)sc1C(=O)N1CC[C@H](N)C1 [Compound 285, (S)-(3-aminopyrrolidin-1-yl)(3-propyl-5-(4-(1-(tetrahydro-2H-pyran-4-yl)piperidin-4-yl)phenyl)thiophen-2-yl)methanone]
16 | < 500 nM | C=CCc1cc(-c2ccc(C3CCN(C4CCOCC4)CC3)cc2)sc1C(=O)N1CC[C@H](N)C1 [Compound 286]
17 | < 500 nM | Cc1cc(-c2ccc(C3CCN(C4CCOCC4)CC3)c(Cl)c2)sc1C(=O)N1CC[C@H](N)C1 [Compound 287, (S)-(3-aminopyrrolidin-1-yl)(5-(3-chloro-4-(1-(tetrahydro-2H-pyran-4-yl)piperidin-4-yl)phenyl)-3-methylthiophen-2-yl)methanone]
18 | < 500 nM | C#CCOCCN1CCC(c2ccc(-c3cc(C)c(C(=O)N4CC[C@H](N)C4)s3)cc2)CC1 [Compound 288, (S)-(3-amino-pyrrolidin-1-yl)(3-methyl-5-(4-(1-(2-(prop-2-yn-1-yloxy)ethyl)piperidin-4-yl)phenyl)thiophen-2-yl) methanone]
19 | < 500 nM | CCc1cc(-c2ccc(C3CCN(C4CCOCC4)CC3)cc2)sc1C(=O)N1CC[C@H](N)C1 [Compound 289, (S)-(3-aminopyrrolidin-1-yl)(3-ethyl-5-(4-(1-(tetrahydro-2H-pyran-4-yl)piperidin-4-yl)phenyl)thiophen-2-yl)methanone]
20 | < 500 nM | C#CCOCCOCCN1CCC(c2ccc(-c3cc(C)c(C(=O)N4CC[C@H](N)C4)s3)cc2)CC1 [Compound 290, (S)-(3-aminopyrrolidin-1-yl)(3-methyl-5-(4-(1-(2-(2-(prop-2-yn-1-yloxy)ethoxy)ethyl)piperidin-4-yl)phenyl)thiophen-2-yl)methanone]
21 | < 500 nM | CCc1cc(-c2ccc(C3CCN(C4CCOCC4)CC3)c(F)c2)sc1C(=O)N1CC[C@H](N)C1 [Compound 291, (S)-(3-aminopyrrolidin-1-yl)(3-ethyl-5-(3-fluoro-4-(1-(tetrahydro-2H-pyran-4-yl)piperidin-4-yl)phenyl)thiophen-2-yl)methanone]
22 | 500 to 1000 nM | COc1cc(-c2ccc(C3CCN(C4CCOCC4)CC3)c(F)c2)sc1C(=O)N1CC[C@H](N)C1 [Compound 292, (S)-(3-aminopyrrolidin-1-yl)(5-(3-fluoro-4-(1-(tetrahydro-2H-pyran-4-yl)piperidin-4-yl)phenyl)-3-methoxythiophen-2-yl)methanone]
23 | 500 to 1000 nM | COc1cc(-c2ccc(C3CCN(C4CCOCC4)CC3)cc2)sc1C(=O)N1CC[C@H](N)C1 [Compound 293]
24 | < 500 nM | N[C@H]1CCN(C(=O)c2sc(-c3ccc(C4CCN(C5CCOCC5)CC4)cc3)cc2Cl)C1 [Compound 294, (S)-(3-aminopyrrolidin-1-yl)(3-chloro-5-(4-(1-(tetrahydro-2H-pyran-4-yl)piperidin-4-yl)phenyl)thiophen-2-yl)methanone]
